Measurements as given in paper PMC4132815, “Structure and Function of the Bacterial Heterodimeric ABC Transporter CydDC” (The Journal of Biological Chemistry, 2014).

How the values were obtained:
CydDC (C-His6-CydDC) [1] = biological target: T1, CydDC (C-His6-CydDC) (Escherichia coli, UniProt P23886+P29018, P29018:INS2NS); test: stimulation of ATPase activity (colorimetric Pi release); type: biochemical; conditions: peak 2 in 0.02% DDM; 5 mM compound; 2 mM ATP, 10 mM MgCl2, pH 7.5, 37 °C; activator
T1 construct: gene cydD; full-length heterodimer (64 + 63 kDa); plasmid pHX100 in E. coli BL21

CydDC (C-His6-CydDC) [2] = biological target: T1, CydDC (C-His6-CydDC); test: as above; type: biochemical

Q: With `N[C@@H](Cc1cnc[nH]1)C(=O)O` [L-histidine] as the compound, how does the “% of basal ATPase activity at 5 mM” value (CydDC (C-His6-CydDC) [1]) read?
A: Its value is “Significant changes in ATPase activity were invoked only with thiols and L-histidine”.

Q: How did the EC50 (CydDC (C-His6-CydDC) [2]) turn out when `N[C@@H](CS)C(=O)O` [cysteine] was run?
A: The EC50 was 26 ± 3 µM.
